Data reported in patent US20210379099A1 (priority 2020, published 2021).
pKd: −log10 of the molar value. Entries after “also recorded” stand apart in the source; their conditions may differ.

How the values were obtained:
[1] = format: binding; conditions: read-out: Kd (Me4CB[8]•guest)
[2] = test system: PCP-induced hyperlocomotion; assay: In vivo reversal of PCP-induced hyperlocomotion (open field, locomotion counts); parameters: species or system mice; conditions: listed as PCP

Compound | pKd [1] | locomotion counts, PCP alone ([2]; experiment 1, male Swiss Webster mice n=8, PCP 2 mg/kg, 0.2 mL infusion, vs saline, Me4CB[8] alone, premix) | locomotion counts, PCP alone ([2]; experiment 2, male Swiss Webster mice n=9, PCP 1.95 mg/kg, vs saline and sequential infusions)
CNC1(c2ccccc2Cl)CCCCC1=O (stereo not shown) [Ketamine 7, Ketamine] | 7.44 |  | 
c1ccc(C2(N3CCCCC3)CCCCC2)cc1 [PCP 8, Phencyclidine] | 8.70 | increased locomotion significantly; also recorded: significant increase in locomotion counts | significantly increased locomotion counts; also recorded: significant increase in locomotion counts
